Data taken from patent publication US7067624B2, “Antimicrobial proteins” (Commonwealth Scientific and Industrial Research Organisation, priority 1996, dated 2006).
Like-named read-outs stand apart in the source and are kept apart here. Where no end group is shown, it is not given here.

Experiments:
Cercospora nicotianae = test: Antifungal growth inhibition bioassay (96-well, A600); type: cell-based
[1] = system: Clavibacter michiganensis; test: Antibacterial growth inhibition bioassay (96-well, A600); type: cell-based
Escherichia coli = test: as above; type: cell-based
Phytophthora cryptogea = test: Antifungal growth inhibition bioassay (96-well, A600); type: cell-based
[2] = system: Pseudomonas syringae tabaci; test: Antibacterial growth inhibition bioassay (96-well, A600); type: cell-based
Ceratocystis paradoxa = test: Antifungal growth inhibition bioassay (96-well, A600); type: cell-based
fungi and bacteria = test: Antifungal and antibacterial activity bioassays, results in words; type: cell-based; conditions: for antimicrobial / antifungal activity (in words): bioassays as in Example 2
Saccharomyces cerevisiae = test: Antifungal growth inhibition bioassay (96-well, A600); type: cell-based
[3] = system: Phytophthora parasitica nicotiana; test: as above; type: cell-based
Alternaria helianthi = conditions: Table 1, no added Ca2+
Ralstonia solanacearum = type: cell-based
Candida albicans = test: Antifungal growth inhibition bioassay (96-well, A600); type: cell-based
Chalara elegans = test: as above; type: cell-based
[4] = Table 1, 1 mM Ca2+ in test medium

MiAMP2c: 47-amino-acid antimicrobial protein purified from Macadamia integrifolia seeds; amino acids 118 to 164 of clone 3 (SEQ ID NO: 5) (RKQQKRYEEQQREDEEKYEERMKEGDNKRDPQQREYEDCRRHCEQQE; Partial mature peptide)
IC50 + Ca^2+ (Cercospora nicotianae; [4]): 5 to 10 µg/mL | IC50 (concentration at which 50% inhibition of growth was observed) (Cercospora nicotianae; Table 1, no added Ca2+): 5 to 10 µg/mL | IC50 + Ca^2+ [1, 4]: >50 µg/mL | IC50 (concentration at which 50% inhibition of growth was observed) ([1]; Table 1, no added Ca2+): 50 µg/mL | IC50 + Ca^2+ (Escherichia coli; [4]): >50 µg/mL | IC50 (concentration at which 50% inhibition of growth was observed) (Escherichia coli; Table 1, no added Ca2+): >50 µg/mL | IC50 + Ca^2+ (Phytophthora cryptogea; [4]): 10 to 25 µg/mL | IC50 (concentration at which 50% inhibition of growth was observed) (Phytophthora cryptogea; Table 1, no added Ca2+): 5 to 10 µg/mL | IC50 + Ca^2+ (Sclerotinia sclerotiorum; Table 1, Sclerotinia sclerotiorum, 1 mM Ca2+ in test medium): >50 µg/mL | IC50 (concentration at which 50% inhibition of growth was observed) (Sclerotinia sclerotiorum; Table 1, Sclerotinia sclerotiorum, no added Ca2+): 20 to 50 µg/mL | IC50 values, Ss (Sclerotinia sclerotiorum; Table 2, Sclerotinia sclerotiorum, media A without added Ca2+): 20 to 50 µg/mL | IC50 + Ca^2+ [2, 4]: >50 µg/mL | IC50 (concentration at which 50% inhibition of growth was observed) ([2]; Table 1, no added Ca2+): >50 µg/mL | IC50 + Ca^2+ (Ceratocystis paradoxa; [4]): >50 µg/mL | IC50 (concentration at which 50% inhibition of growth was observed) (Ceratocystis paradoxa; Table 1, no added Ca2+): 20 to 50 µg/mL | IC50 values, Cp (Ceratocystis paradoxa; Table 2, media A without added Ca2+): 20 to 50 µg/mL | IC50 + Ca^2+ (Fusarium oxysporum; Table 1, Fusarium oxysporum, 1 mM Ca2+ in test medium): 20 to 50 µg/mL | IC50 values, Foc (Fusarium oxysporum; Table 2, Fusarium oxysporum, media A without added Ca2+): 10 µg/mL | effect of Ca2+ on inhibitory activity (in words) (fungi and bacteria; 1 mM Ca2+ in the test medium): greatly reduced (although not eliminated) | IC50 + Ca^2+ (Saccharomyces cerevisiae; [4]): >50 µg/mL | IC50 (concentration at which 50% inhibition of growth was observed) (Saccharomyces cerevisiae; Table 1, no added Ca2+): 20 to 50 µg/mL | IC50 + Ca^2+ [3, 4]: >50 µg/mL | IC50 (concentration at which 50% inhibition of growth was observed) ([3]; Table 1, no added Ca2+): 10 to 20 µg/mL | IC50 (concentration at which 50% inhibition of growth was observed) (Alternaria helianthi): 5 to 10 µg/mL | IC50 + Ca^2+ (Ralstonia solanacearum; [4]): >50 µg/mL | IC50 (concentration at which 50% inhibition of growth was observed) (Ralstonia solanacearum; Table 1, no added Ca2+): >50 µg/mL | IC50 + Ca^2+ (Verticillium dahliae; Table 1, Verticillium dahliae, 1 mM Ca2+ in test medium): >50 µg/mL | IC50 (concentration at which 50% inhibition of growth was observed) (Verticillium dahliae; Table 1, Verticillium dahliae, no added Ca2+): 5 to 10 µg/mL | IC50 values, Vd (Verticillium dahliae; Table 2, Verticillium dahliae, media A without added Ca2+): 5 to 10 µg/mL | IC50 + Ca^2+ (Candida albicans; [4]): >50 µg/mL | IC50 (concentration at which 50% inhibition of growth was observed) (Candida albicans; Table 1, no added Ca2+): >50 µg/mL | IC50 + Ca^2+ (Chalara elegans; [4]): 10 to 20 µg/mL | IC50 (concentration at which 50% inhibition of growth was observed) (Chalara elegans; Table 1, no added Ca2+): 2 to 5 µg/mL

PRHMQIAQQRAERRAEKEKRKQQKR [MiAMP2c pep2]
IC50 values, Lm (Leptosphaeria maculans): 10 to 20 µg/mL | IC50 values, Ss (Sclerotinia sclerotiorum): 50 µg/mL | IC50 values, Foc (Fusarium oxysporum): 10 to 20 µg/mL | antimicrobial / antifungal activity (in words) (fungi and bacteria): inhibitory activity against a variety of fungi | IC50 values, Vd (Verticillium dahliae): 10 to 20 µg/mL

RQRDPQQQAEQAQKRAQRRETE [MiAMP2c pep1]
IC50 values, Ss (Sclerotinia sclerotiorum): >50 µg/mL | antimicrobial / antifungal activity (in words) (fungi and bacteria): little or no activity
